Experimental data published in patent US20230235374A1, “High Throughput Assays for Detecting Translation Readthrough Inducers” (The Trustees of the University of Pennsylvania, priority 2021, published 2023).

Key:
Type in all cases: binding, shrimp (Artemia salina)
[1] = system: Small RNAs within Stop-POST5 complex; test: AzAt photoincorporation into small RNAs (urea-PAGE, RNAse H fragments)
Protocol: FIG. 11 illustrates 8% Urea-PAGE resolution of small RNAs.
Photoaffinity labeling with [^3H]-AzAt. Samples in Buffer 4, typically 20 μL, were incubated in the dark (20 min for Stop-POST5 and 80S-IRES complexes, 2 min for release factors) with various concentrations of [^3H]-AzAt at 37° C., transferred to a UV-transparent cuvette which was covered with parafilm to prevent evaporation, and irradiated in a Rayonet photochemical reactor equipped with 300 nm UV lamps for 5 min at room temperature. This was followed by quenching with 2 mM DTT at 37° C. for 5 min under ambient light. The irradiation time gave complete photolysis of the phenyl azide moiety in AzAt. Photolysis was also complete at 5 min in the presence of 1 mM ataluren, ruling out internal filtering effects.
Stop-POST5 and 80S-IRES complexes. 1 μM solutions of either Stop-POST5 or 80S-S.IRES, determined by A260, were photolabeled by [^3H]-AzAt. The sample was then either directly purified by ultracentrifugation through a sucrose cushion to determine the photoincorporation stoichiometry in the complex, or subjected to phenol/chloroform extraction to determine the photoincorporation stoichiometry in the total RNA. To determine the photoincorporation background arising from incomplete removal of noncovalently bound photolyzed AzAt, AzAt was prephotolysed for 5 min before adding to the complex, followed by the 20 min incubation in dark at 37° C. and subsequent sucrose cushion purification or RNA extraction as described above.
(§1) RNaseH Fragment Assay. Total RNA was prepared from the ^3H-AzAt photoaffinity labeled ribosome by phenol-chloroform extraction. RNA: DNA duplexes were formed by incubating total RNA (0.2 μM) with an oligonucleotide pair (1 μM of each, sequences shown Table 1), flanking a specific RNA region, in 22.8 μL of water at 95° C. for 2 min, followed by annealing at 50° C. for 30 s and quenching on ice. Six units (1.2 μL) of RNase H (NEB) and 6 μl of 5×RNase H Reaction Buffer were next added to the RNA: DNA duplex and incubated at 37° C. for 1 hour, followed by phenol-chloroform extraction of RNA. The digested RNA was separated on 12% TBE-Urea PAGE gel, and the target band along with the adjacent upper and bottom gels were sliced by a 2 mm gel cutter. The gel slices were crushed and the ^3H labeled rRNA fragment was extracted in water by vigorously shaking at 70° C. for 30 min, or by overnight extraction in elution buffer (0.3M sodium acetate, 0.25% SDS, 1 mM EDTA). The slurry was removed by centrifugation and the eluted ^3H labeled rRNA in the supernatant was quantified. The stoichiometry of AzAt photoincorporation was calculated based on a gel recovery yield of 20±2%, determined using an authentic sample of [^3H]-Gln-tRNA^Gln.
Small RNAs. AzAt photoincorporation into the 4 small RNAs (CrPV-IRES, 5.8S rRNA, 5S rRNA, and tRNA) contained within POST5 was examined by one-dimensional (1D) urea-PAGE analysis, by RNA-Seq, and by RNAse H fragment assay (FIG. 11).

[2] = system: rRNA fragments I-IV of 80S-IRES; test: RNaseH fragment assay, 80S-IRES
Protocol: as §1
(§2) Testing the functional pertinence of AzAt photolabeling of 18S A1195, 28S-A3093, 28S-A2672, and 28S-2669. An RNAse H fragment assay was employed to determine whether the potential functionally significant sites identified by LASER-seq correspond to ataluren binding sites relevant for termination activity. In this assay, oligonucleotide hybridization, RNase H digestion and polyacrylamide gel electrophoresis (PAGE) were used to determine the stoichiometry of [^3H]-AzAt photoincorporation into the three rRNA fragments that together include the four nucleotides of interest: Fragment I, 18S-A1195; Fragment II, 26S-A3093; Fragment III, 26S-A2669 and 26S-A2672 (Table 5). The separate addition of four potential competitors of AzAt binding (eRF1 alone, the stably bound eRF1.eRF3.GDPNP complex, ataluren, and the ataluren-like TRID GJ072) was used to test how these affected such photoincorporation. These experiments, the results of which are summarized in Table 5, were performed at two different AzAt concentrations. eRF1 and eRF1.eRF3.GDPNP effects were measured using 300 μM AzAt, paralleling the LASER-Seq PAL experiments.

[3] = system: rRNA fragments I-IV of Stop-POST5; test: RNaseH fragment assay, Stop-POST5
Protocol: as §1, §2

[4] = PAL, 300 μM AzAt, alone or plus competing ligand named as label
[5] = 80S-IRES, PAL, 300 μM AzAt, alone or plus competing ligand named as label
[6] = Stop-POST5, PAL, 300 μM AzAt, alone or plus competing ligand named as label

eRF1/eRF3/GDPNP: stably bound ternary complex of eRF1, eRF3 and GDPNP used as competing ligand
effect on AzAt labeling of CrPV-IRES ([1]; 300 μM AzAt): partial but significant reduction
Photoincorporation yields into CrPV-IRES nts1-155 ([1]; PAL, 300 μM AzAt, alone (AzAt) or plus competing ligand named as label (eRF1 2 μM, eRF3 4 μM, GDPNP 1 mM)): 4.6 ± 1.4 mole %
Photoincorporation yields into 5S rRNA [1, 4]: 1.3 ± 0.2 mole %
Photoincorporation yields into 5.8S rRNA [1, 4]: 0.80 ± 0.02 mole %
Photoincorporation yields into CrPV-IRES All [1, 4]: 5.4 ± 0.6 mole %
Photoincorporation yields into CrPV-IRES nts156-221 [1, 4]: 2.9 ± 0.6 mole %
Photoincorporation yields into CrPV-IRES nts222-278 [1, 4]: 0.08 ± 0.11 mole %
Photoincorporation yields into tRNA^Gln [1, 4]: 2.2 ± 0.2 mole %
effect on AzAt labeling of CrPV-IRES fragments 1-155 and 156-221 ([1]; RNAse H fragment assay): Only minor decreases
Photoincorporation yields into 18S A1195/ I: 18S 1151-1206 [2, 5]: 0.56 ± 0.06 mole %
Photoincorporation yields into 26S-A2669:A2672/ III: 26S 2638-2702 [2, 5]: 0.94 ± 0.23 mole %
Photoincorporation yields into 26S-A3093/ II: 26S 3069-3113 [2, 5]: 0.55 ± 0.12 mole %
effect on AzAt photoincorporation into Fragment I ([2]; 80S.IRES complex): only partial inhibition
effect on AzAt photoincorporation into Fragments II and III ([2]; 80S.IRES complex): essentially no inhibition
Photoincorporation yields into RNAse H Fragment IV: 26S 1413-1476 ([2]; 80S.IRES, PAL, 300 μM AzAt, alone or plus competing ligand named as label): 0.30 ± 0.03%
Photoincorporation yields into 26S-A2669:A2672/ III: 26S 2638-2702 [3, 6]: 0.19 ± 0.02 mole %
Photoincorporation yields into 26S-A3093/ II: 26S 3069-3113 [3, 6]: 0.18 ± 0.10 mole %
Photoincorporation yields into RNAse H Fragment IV: 26S 1413-1476 ([3]; Stop-POST5, PAL, 300 μM AzAt, alone or plus competing ligand named as label (eRF1 2 μM, eRF3 4 μM, GDPNP 1 mM)): 0.20 ± 0.01%
Photoincorporation yields into 18S A1195/ I: 18S 1151-1206 ([3]; Stop-POST5, PAL, 300 μM AzAt, alone or plus competing ligand named as label (eRF1 2 μM, eRF3 4 μM, GDPNP)): 0.07 ± 0.03 mole %
effect on AzAt photoincorporation into Fragments I, II, and III ([3]; Stop-POST5 complex): strongly inhibited
